# Laboratory results reported in ChEMBL document CHEMBL3714730, “Diaminopyrimidines as P2X3 and P2X2/3 modulators” (2009).
# Active and inactive are the calls of the source. The rule behind the calls is not given here.
# Molecular target: P2X2/P2X3 heterotrimeric receptor (Homo sapiens) (UniProt Q9UBL9+P56373)
# Experiment: Antagonist activity against human P2X2/3 receptor expressed in CHOK1 cells assessed as inhibition of alpha,beta-meATP-induced calcium response incubated for 20 mins by Fluo-3AM dye based FLIPR assay
# Assay type: functional, cell-based
# Conditions: CHO-K1
row,SMILES,inhibition
1,C#Cc1cc(OC)c(C(C)C)c(Oc2cnc(N)nc2N)c1,Active
2,CNCC#Cc1cc(Oc2cnc(N)nc2N)c(C(C)C)cc1OC,Active
3,C#Cc1cc(Oc2cnc(NCCCO)nc2N)c(C(C)C)cc1OC,Active
4,C#Cc1cc(Oc2cnc(NCCO)nc2N)c(C(C)C)cc1OC,Active
5,C#Cc1cc(Cc2cnc(N)nc2N)c(C(C)C)cc1OC,Active
6,C#Cc1cc(Oc2cnc(NC3CCOCC3)nc2N)c(C(C)C)cc1OC,Active
7,C#Cc1cc(OC)c(I)cc1Oc1cnc(N)nc1N,Active
8,COc1cc(I)cc(Oc2cnc(N)nc2N)c1C(C)C,Active
9,C#Cc1ccc(I)c(Oc2cnc(N)nc2N)c1,Active
10,COCC#Cc1cc(Oc2cnc(N)nc2N)c(C(C)C)cc1OC,Active
11,C#Cc1cc(Oc2cnc(NC(CO)CO)nc2N)c(C(C)C)cc1OC,Active
12,C#Cc1cc(Oc2cnc(NC3CCN(S(C)(=O)=O)CC3)nc2N)c(C(C)C)cc1OC,Active
13,COc1cc(C(C)C)c(Oc2cnc(N)nc2N)cc1C#Cc1ccsc1,Active
14,COc1cc(C(C)C)c(Oc2cnc(N)nc2N)cc1C#Cc1cccnc1,Active
15,COc1cc(C(C)C)c(Oc2cnc(N)nc2N)cc1C#CC1CC1,Active
16,C#Cc1ccc(C(C)C)c(Oc2cnc(N)nc2N)c1,Active
17,COc1cc(C(C)C)c(Oc2cnc(N)nc2N)cc1C#C[Si](C)(C)C,Active
18,C#Cc1cc(Oc2cnc(N)nc2N)c(C(C)C)cc1OC,Active
19,C#Cc1cc(Oc2cnc(N)nc2N)c(C(C)C)cc1OCc1cccc(F)c1,Active
20,CC#Cc1cc(Oc2cnc(N)nc2N)c(C(C)C)cc1F,Active
21,C#Cc1cc(Oc2cnc(N)nc2N)c(C(C)C)cc1Cl,Active

row,SMILES,inhibition
1,COc1cc(C(C)C)c(Oc2cnc(N)nc2N)cc1C#CCCC#N,Active
2,C#Cc1cc(Oc2cnc(N)nc2N)c(C(C)C)cc1F,Active
3,COc1cc(C(C)C)c(Oc2cnc(N)nc2N)cc1C#Cc1ccccc1,Active
4,CC#Cc1cc(Oc2cnc(N)nc2N)c(C(C)C)cc1OC,Active
5,COc1cc(C(C)C)c(Oc2cnc(N)nc2N)cc1C#Cc1ccccn1,Active
6,COc1cc(C(C)C)c(Oc2cnc(N)nc2N)cc1C#CCCO,Active
7,C#Cc1cc(Oc2cnc(N)nc2N)c(C(C)C)cc1OCCO,Active
8,C#Cc1cc(Oc2cnc(NCCN3CCOCC3)nc2N)c(C(C)C)cc1OC,Active
9,COc1cc(C(C)C)c(Oc2cnc(N)nc2N)cc1C#Cc1ccncc1,Active
10,C#Cc1cc(Oc2cnc(N)nc2N)c(CC)cc1OC,Active
11,C#Cc1ccc(C#C)c(Oc2cnc(N)nc2N)c1,Active
12,COc1cc(C(C)C)c(Oc2cnc(N)nc2N)cc1C#Cc1cncn1C,Active
13,COc1cc(C(C)C)c(Oc2cnc(N)nc2N)cc1C#CCCCO,Active
14,C#Cc1cc(Oc2cnc(N)nc2N)c(C#C)cc1OC,Active
15,COc1cc(C(C)C)c(Oc2cnc(N)nc2N)cc1C#CCO,Active
16,C#Cc1cc(Oc2cnc(NC(C)CO)nc2N)c(C(C)C)cc1OC (configuration not stated),Active
17,C#Cc1cc(Oc2cnc(NCCN(C)C)nc2N)c(C(C)C)cc1OC,Active
18,CCCC#Cc1cc(Oc2cnc(N)nc2N)c(C(C)C)cc1OC,Active
19,C#Cc1cc(Oc2cnc(NCC(C)O)nc2N)c(C(C)C)cc1OC (configuration not stated),Active
20,C#Cc1cc(Oc2cnc(NCCN3CCCCC3)nc2N)c(C(C)C)cc1OC,Active

# Molecular target: T1, P2X purinoceptor 3 (Rattus norvegicus) (UniProt P49654)
# T1 sequence (whole entry): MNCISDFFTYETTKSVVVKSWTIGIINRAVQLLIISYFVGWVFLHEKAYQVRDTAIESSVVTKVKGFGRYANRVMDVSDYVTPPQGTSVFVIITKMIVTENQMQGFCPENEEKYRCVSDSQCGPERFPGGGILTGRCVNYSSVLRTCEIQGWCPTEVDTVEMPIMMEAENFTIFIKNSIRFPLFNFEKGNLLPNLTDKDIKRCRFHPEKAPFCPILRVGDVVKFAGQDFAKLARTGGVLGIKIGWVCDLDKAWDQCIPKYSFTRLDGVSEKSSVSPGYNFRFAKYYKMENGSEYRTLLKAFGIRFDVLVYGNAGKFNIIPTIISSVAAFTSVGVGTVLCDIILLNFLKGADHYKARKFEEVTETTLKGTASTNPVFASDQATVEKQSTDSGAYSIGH
# Experiment: Antagonist activity against rat P2X3 receptor expressed in CHOK1 cells assessed as inhibition of alpha,beta-meATP-induced calcium response incubated for 20 mins by Fluo-3AM dye based FLIPR assay
# Assay type: functional, cell-based
# Conditions: CHO-K1
row,SMILES,inhibition
1,C#Cc1cc(OC)c(C(C)C)c(Oc2cnc(N)nc2N)c1,Active
2,CNCC#Cc1cc(Oc2cnc(N)nc2N)c(C(C)C)cc1OC,Active
3,C#Cc1cc(Oc2cnc(NCCCO)nc2N)c(C(C)C)cc1OC,Active
4,C#Cc1cc(Oc2cnc(NCCO)nc2N)c(C(C)C)cc1OC,Active
5,C#Cc1cc(Cc2cnc(N)nc2N)c(C(C)C)cc1OC,Active
6,C#Cc1cc(Oc2cnc(NC3CCOCC3)nc2N)c(C(C)C)cc1OC,Active
7,C#Cc1cc(OC)c(I)cc1Oc1cnc(N)nc1N,Active
8,COc1cc(I)cc(Oc2cnc(N)nc2N)c1C(C)C,Active
9,C#Cc1ccc(I)c(Oc2cnc(N)nc2N)c1,Active
10,COCC#Cc1cc(Oc2cnc(N)nc2N)c(C(C)C)cc1OC,Active
11,C#Cc1cc(Oc2cnc(NC(CO)CO)nc2N)c(C(C)C)cc1OC,Active
12,C#Cc1cc(Oc2cnc(NC3CCN(S(C)(=O)=O)CC3)nc2N)c(C(C)C)cc1OC,Active
13,COc1cc(C(C)C)c(Oc2cnc(N)nc2N)cc1C#Cc1ccsc1,Active
14,COc1cc(C(C)C)c(Oc2cnc(N)nc2N)cc1C#Cc1cccnc1,Active
15,COc1cc(C(C)C)c(Oc2cnc(N)nc2N)cc1C#CC1CC1,Active
16,C#Cc1ccc(C(C)C)c(Oc2cnc(N)nc2N)c1,Active
17,COc1cc(C(C)C)c(Oc2cnc(N)nc2N)cc1C#C[Si](C)(C)C,Active
18,C#Cc1cc(Oc2cnc(N)nc2N)c(C(C)C)cc1OC,Active
19,C#Cc1cc(Oc2cnc(N)nc2N)c(C(C)C)cc1OCc1cccc(F)c1,Active
20,CC#Cc1cc(Oc2cnc(N)nc2N)c(C(C)C)cc1F,Active
21,C#Cc1cc(Oc2cnc(N)nc2N)c(C(C)C)cc1Cl,Active

row,SMILES,inhibition
1,COc1cc(C(C)C)c(Oc2cnc(N)nc2N)cc1C#CCCC#N,Active
2,C#Cc1cc(Oc2cnc(N)nc2N)c(C(C)C)cc1F,Active
3,COc1cc(C(C)C)c(Oc2cnc(N)nc2N)cc1C#Cc1ccccc1,Active
4,CC#Cc1cc(Oc2cnc(N)nc2N)c(C(C)C)cc1OC,Active
5,COc1cc(C(C)C)c(Oc2cnc(N)nc2N)cc1C#Cc1ccccn1,Active
6,COc1cc(C(C)C)c(Oc2cnc(N)nc2N)cc1C#CCCO,Active
7,C#Cc1cc(Oc2cnc(N)nc2N)c(C(C)C)cc1OCCO,Active
8,C#Cc1cc(Oc2cnc(NCCN3CCOCC3)nc2N)c(C(C)C)cc1OC,Active
9,COc1cc(C(C)C)c(Oc2cnc(N)nc2N)cc1C#Cc1ccncc1,Active
10,C#Cc1cc(Oc2cnc(N)nc2N)c(CC)cc1OC,Active
11,C#Cc1ccc(C#C)c(Oc2cnc(N)nc2N)c1,Active
12,COc1cc(C(C)C)c(Oc2cnc(N)nc2N)cc1C#Cc1cncn1C,Active
13,COc1cc(C(C)C)c(Oc2cnc(N)nc2N)cc1C#CCCCO,Active
14,C#Cc1cc(Oc2cnc(N)nc2N)c(C#C)cc1OC,Active
15,COc1cc(C(C)C)c(Oc2cnc(N)nc2N)cc1C#CCO,Active
16,C#Cc1cc(Oc2cnc(NC(C)CO)nc2N)c(C(C)C)cc1OC (configuration not stated),Active
17,C#Cc1cc(Oc2cnc(NCCN(C)C)nc2N)c(C(C)C)cc1OC,Active
18,CCCC#Cc1cc(Oc2cnc(N)nc2N)c(C(C)C)cc1OC,Active
19,C#Cc1cc(Oc2cnc(NCC(C)O)nc2N)c(C(C)C)cc1OC (configuration not stated),Active
20,C#Cc1cc(Oc2cnc(NCCN3CCCCC3)nc2N)c(C(C)C)cc1OC,Active
